Data on 10 compounds can be found in patent publication US20080092250A1, “Activity-induced pain in animal model of osteoarthritis” (priority 2006, published 2008).

Read-outs that look alike come from different tables or passages of the source.

Series [1] concerns osteoarthritic rats (unilateral i.a. MIA injection). The series can be described thus: Hind limb grip force (activity-induced pain) 20 days after i.a. MIA injection. It is filed as in vivo, rat. As for the experimental part:
For evaluating the effects of reference analgesic drugs experiments were performed 20 days after induction of OA. Assessment of hind limb grip force was used as a behavioral measure of activity induced pain in adult OA rodents. Measurements of peak hind limb grip force were conducted by recording the maximum compressive force exerted on the hind limb strain gauge setup, in a commercially available grip force measurement system (Columbus Instruments, Columbus, Ohio). A group of age matched naïve animals were added to each experiment and the data obtained from the different dose groups for the compound being tested were compared to the naïve group.
(§1) All experiments have been approved by the Institutional Animal Care and Use Committee (IACUC) at Abbott Laboratories and are in strict accordance with the ethical guidelines laid down by the International Association for the Study of Pain (IASP) (Zimmermann, 1983) for the care and use of laboratory animals. […] Following injection, the animals were allowed to recover from the effects of anesthesia (usually 5-10 mins) before returning to their home cages. […] Animals were euthanized by CO2 inhalation on day 20. The injected knee joints were dissected and immediately fixed in 10% phosphate buffered formalin. The samples were then decalcified in 5% formic acid for 3 days, routinely processed and then embedded in paraffin wax. Frontal histologic sections of the femorotibial joints (6 μm) were prepared, stained with toluidine-blue and examined with a light microscope (Guzman et al., 2003).
(§2) Measurements of peak hind limb grip force were conducted by recording the maximum compressive force exerted on the hind limb strain gauge setup, in a commercially available grip force measurement system (Columbus Instruments, Columbus, Ohio). […] Additional tests were performed 1, 2, 4, 7, 10, 13, 17, 21, 24, and 28 days following the injections.
A group of age matched naïve animals were added to each experiment and the data obtained from the different dose groups for the compound being tested were compared to the naïve group. The vehicle control group for each compound being tested was assigned 0% whereas the naïve group was assigned as being 100% (normal). The % effects for each dose group was then expressed as % return to normalcy compared to the naïve group (=[100÷% increase from vehicle for naive group]×% increase from vehicle for treatment group) (% increase from vehicle=[Treatment CFmax−Vehicle CFmax)/Vehicle CFmax]×100). All experiments evaluating drug effects in this model were conducted in a randomized blinded fashion.

The next series concerns naïve rats. Briefly: Hind limb grip force in naïve (non-MIA injected) rats. As for the experimental part:
as §2

A further series has as its system rats. Conditions: 28 days after unilateral i.a. injection, 3 mg; baseline 1090.17±52.85 g. As to the method:
as §1, §2

Setting [2] is: Rattus norvegicus, po, 480 h; read-out: % effect (% return to normalcy of grip force).
[3] abbreviates: Rattus norvegicus, po, 480 h; read-out: CI95% of ED50.
Setting [4] is: Rattus norvegicus, po, 480 h; read-out: ED50, reversal of decreased grip force.

With `Nc1nnc(-c2cccc(Cl)c2Cl)c(N)n1` [Lamotrigine, lamotrigine], in series [1] (setting [2]), the inhibition in vivo at 100 µmol/kg was found to be 30 ± 3%.

In the case of `CC(=O)Nc1ccc(O)cc1` [acetaminophen], the inhibition in vivo at 300 µmol/kg in series [1] (setting [2]) came out at 23 ± 11%.

The ED50 is the dose at which the effect has come halfway, by size or by number of responders. On to `Cc1ccc(-c2cc(C(F)(F)F)nn2-c2ccc(S(N)(=O)=O)cc2)cc1` [celecoxib], for which the results for the “% effect, chronic dosing” value in series [1] (10 μmol/kg p.o. b.i.d. for 12 days beginning 7 days after MIA) and in series [1] (30 μmol/kg p.o. b.i.d. for 12 days beginning 7 days after MIA) were 33±3.0% and 67±3%, respectively. The “% effect, acutely dosed group of chronic study” value in series [1] (10 μmol/kg p.o., acute) amounted to 9±3%; in series [1] (30 μmol/kg p.o., acute), 42±3%. Further, the “% effect, acute positive control of chronic study” value in series [1] (100 μmol/kg p.o., acute) is reported as 88±4%. The inhibition in vivo at 100 µmol/kg in series [1] (setting [2]) came to 87 ± 6%. The ED50 is 16 to 42 µmol/kg in series [1] (setting [3]) and 27 µmol/kg in series [1] (setting [4]).

Regarding `O=C(O)Cc1ccccc1Nc1c(Cl)cccc1Cl` [diclofenac], the inhibition in vivo at 100 µmol/kg in series [1] (setting [2]) was found to be 77 ± 5%. Besides, the 50% effective dose (ED50) was 22 to 38 µmol/kg in series [1] (setting [3]) and 29 µmol/kg in series [1] (setting [4]).

Turning to `NCC1(CC(=O)O)CCCCC1` [gabapentin], the inhibition in vivo at 500 µmol/kg in series [1] (Rattus norvegicus, po, 480 h, read-out: % effect (% return to normalcy of grip force)) turned out to be 61 ± 8%. In addition, the 50% effective dose (ED50) in series [1] (Rattus norvegicus, po, 480 h, read-out: CI95% of ED50) was 100 to 295 µmol/kg; in series [1] (Rattus norvegicus, po, 480 h, read-out: ED50, reversal of decreased grip force), 159 µmol/kg.

For `CC(C)Cc1ccc(C(C)C(=O)O)cc1` (stereo not shown) [ibuprofen], the inhibition in vivo at 300 µmol/kg in series [1] (setting [2]) worked out at 29 ± 8%.

For the compound `COc1ccc2c(c1)c(CC(=O)O)c(C)n2C(=O)c1ccc(Cl)cc1` [indomethacin], in series [1] (setting [2]), the inhibition in vivo at 85 µmol/kg amounted to 44 ± 6%.

Take `CN1CC[C@]23c4c5ccc(O)c4O[C@H]2[C@@H](O)C=C[C@H]3[C@H]1C5` [morphine]: in series [1] (Rattus norvegicus, sc, 480 h, read-out: % effect (% return to normalcy of grip force)), the inhibition in vivo at 8 µmol/kg amounted to 34 ± 3%. In addition, the entries for the “reduction of grip force vs untreated naïve rats” value in the series on naïve rats (8 μmol/kg (6 mg/kg) s.c.) and in the series with naïve rats (13 μmol/kg (10 mg/kg) s.c.) were 13±3% and 52±3%, respectively.

As for `COc1cccc(C2(O)CCCCC2CN(C)C)c1` (stereo not shown) [tramadol], in series [1] (Rattus norvegicus, ip, 480 h, read-out: % effect (% return to normalcy of grip force)), the inhibition in vivo at 100 µmol/kg amounted to 79 ± 5%. Also, the ED50 in series [1] (Rattus norvegicus, ip, 480 h, read-out: CI95% of ED50) is 32 to 54 µmol/kg; in series [1] (Rattus norvegicus, ip, 480 h, read-out: ED50, reversal of decreased grip force), 40 µmol/kg.

As to sodium monoiodoacetate [MIA], the “hind limb grip force (GF)” value in the series with rats came out at 420.96 ± 25.07 g.
